The values that follow are results of earlier work, collected in patent US6693094B2, “Biguanide and sulfonylurea formulations for the prevention and treatment of insulin resistance and type 2 diabetes mellitus” (Chrono RX LLC, priority 2001, dated 2004).

The conditions of series [1]: in vivo.
The conditions of series [2]: in vivo. The source holds these as a separate data set.
Another series concerns the target sulfonylurea receptor (Homo sapiens, UniProt Q09428). To be noted: sulfonylurea receptors of the β-cell membrane.
The conditions of series [3]: in vivo. This is another data set of the same source.
Series [4] deals with insulin secreting β-cells. Conditions: hyperglycemic conditions.
Series [5] has as its system patients with essential hypertension and coronary artery disease. Conditions: 60 mg twice daily for 8 weeks, oral.
The subject of the next series is pancreatic islets. Conditions: islets exposed to IL-1 beta.
Series [6] deals with insulin-resistant type 2 diabetes patients.
Series [7] concerns obese type 2 diabetes patients. Conditions: 600 mg/day, used alone.

sulfonylurea receptor, sequence (Q09428 whole entry): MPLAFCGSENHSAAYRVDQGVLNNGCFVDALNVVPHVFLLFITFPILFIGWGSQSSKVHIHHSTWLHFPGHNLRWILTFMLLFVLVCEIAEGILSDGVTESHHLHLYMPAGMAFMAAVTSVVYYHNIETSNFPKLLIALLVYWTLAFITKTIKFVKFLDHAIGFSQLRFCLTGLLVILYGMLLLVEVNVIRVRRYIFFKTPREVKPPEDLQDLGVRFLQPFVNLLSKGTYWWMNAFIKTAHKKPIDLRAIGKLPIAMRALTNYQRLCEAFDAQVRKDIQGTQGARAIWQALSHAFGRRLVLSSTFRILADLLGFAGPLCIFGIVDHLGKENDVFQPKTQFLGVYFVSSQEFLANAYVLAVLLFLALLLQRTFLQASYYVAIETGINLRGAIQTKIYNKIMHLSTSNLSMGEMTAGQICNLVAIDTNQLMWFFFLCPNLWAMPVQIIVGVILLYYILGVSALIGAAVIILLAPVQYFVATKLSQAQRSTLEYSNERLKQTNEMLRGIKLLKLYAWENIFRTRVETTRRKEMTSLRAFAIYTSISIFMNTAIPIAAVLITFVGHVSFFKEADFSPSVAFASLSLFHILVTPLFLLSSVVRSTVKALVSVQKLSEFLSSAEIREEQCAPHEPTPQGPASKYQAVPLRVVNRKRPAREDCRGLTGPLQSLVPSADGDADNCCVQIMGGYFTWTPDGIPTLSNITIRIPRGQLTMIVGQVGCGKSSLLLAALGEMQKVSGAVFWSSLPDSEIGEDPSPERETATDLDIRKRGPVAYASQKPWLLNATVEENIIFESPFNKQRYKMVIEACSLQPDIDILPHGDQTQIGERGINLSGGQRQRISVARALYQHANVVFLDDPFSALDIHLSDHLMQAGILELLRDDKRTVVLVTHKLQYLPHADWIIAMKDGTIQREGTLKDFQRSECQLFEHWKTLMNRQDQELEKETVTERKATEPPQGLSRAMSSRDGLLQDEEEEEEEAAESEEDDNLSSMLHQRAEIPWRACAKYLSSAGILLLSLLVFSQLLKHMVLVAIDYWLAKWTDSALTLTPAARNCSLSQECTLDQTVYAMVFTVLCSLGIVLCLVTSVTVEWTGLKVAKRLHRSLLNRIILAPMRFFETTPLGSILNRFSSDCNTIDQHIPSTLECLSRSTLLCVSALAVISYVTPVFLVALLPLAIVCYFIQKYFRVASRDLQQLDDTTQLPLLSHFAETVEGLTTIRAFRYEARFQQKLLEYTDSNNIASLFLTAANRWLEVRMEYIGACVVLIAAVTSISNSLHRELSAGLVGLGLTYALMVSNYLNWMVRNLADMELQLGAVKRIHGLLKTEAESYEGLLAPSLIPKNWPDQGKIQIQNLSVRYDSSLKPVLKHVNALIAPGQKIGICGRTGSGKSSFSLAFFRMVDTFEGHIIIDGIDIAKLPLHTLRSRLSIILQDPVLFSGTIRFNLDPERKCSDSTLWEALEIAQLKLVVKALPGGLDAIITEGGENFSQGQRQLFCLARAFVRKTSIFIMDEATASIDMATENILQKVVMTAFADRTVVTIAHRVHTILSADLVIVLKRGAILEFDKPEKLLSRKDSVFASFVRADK
sulfonylurea receptor, sequence (Q14654 whole entry partner): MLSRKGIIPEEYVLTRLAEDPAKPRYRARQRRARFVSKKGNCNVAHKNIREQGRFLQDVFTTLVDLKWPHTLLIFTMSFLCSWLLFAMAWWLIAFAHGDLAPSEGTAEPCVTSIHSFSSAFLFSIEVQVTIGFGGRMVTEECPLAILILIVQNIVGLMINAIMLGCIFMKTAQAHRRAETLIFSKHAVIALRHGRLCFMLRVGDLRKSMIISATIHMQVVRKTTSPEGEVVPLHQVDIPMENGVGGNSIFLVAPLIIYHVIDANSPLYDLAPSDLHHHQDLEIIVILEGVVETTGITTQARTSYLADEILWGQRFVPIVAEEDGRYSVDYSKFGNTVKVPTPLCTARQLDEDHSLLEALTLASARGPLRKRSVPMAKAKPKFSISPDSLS

Consider `CC(=O)c1ccc(S(=O)(=O)NC(=O)NC2CCCCC2)cc1` [Acetohexamide], for which the “Duration of Action” value in series [1] was 12 to 18 h.

In the case of `CCCNC(=O)NS(=O)(=O)c1ccc(Cl)cc1` [Chlorpropamide], in series [1], the “Duration of Action” value is 60 h.

Turning to `[Cr]` [Cr, Chromium], in series [2], the “reduction of metformin requirements” value was “more than one-half”.

For the molecule `CCC1=C(C)CN(C(=O)NCCc2ccc(S(=O)(=O)NC(=O)N[C@H]3CC[C@H](C)CC3)cc2)C1=O` [Glimepiride], in series [1], the “Duration of Action” value is 16 to 24 h.

As for `Cc1cnc(C(=O)NCCc2ccc(S(=O)(=O)NC(=O)NC3CCCCC3)cc2)cn1` [Glipizide], the “Duration of Action” value in [1] was 12 to 24 h. Also, the “concentration range that saturates receptors” value at sulfonylurea receptor was “low nM”.

As to `COc1ccc(Cl)cc1C(=O)NCCc1ccc(S(=O)(=O)NC(=O)NC2CCCCC2)cc1` [Glyburide], the “glycolytic flux and lactate production” value with perfused rat hearts is recorded as “dramatic increase”.

As for `CN(C)C(=N)N=C(N)N` [Metformin, metformin], in series [3], the “frequency of lactic acidosis” value is given as 3 cases per 100,000 patient-years and the “incidence of lactic acidosis” value is reported as 0.03 /1,000 patient-years exposure.

As to `CCCCNC(=O)NS(=O)(=O)c1ccc(C)cc1` [Tolbutamide], in series [1], the “Duration of Action” value was 6 to 12 h.

On to `O=C1O[C@H]([C@@H](O)CO)C(O)=C1O` [ascorbate, ascorbic acid], for which the “decrease of cellular insulin glycation” value in series [4] is listed as 66-80%.

As to `COC1=C(OC)C(=O)C(C/C=C(\C)CC/C=C(\C)CC/C=C(\C)CC/C=C(\C)CC/C=C(\C)CC/C=C(\C)CC/C=C(\C)CC/C=C(\C)CC/C=C(\C)CCC=C(C)C)=C(C)C1=O` [coenzyme Q10, Ubiquinone], in [5], the HDL-cholesterol result is given as “increased”; the “systolic and diastolic blood pressure, fasting and 2-h plasma insulin, glucose, triglycerides, lipid peroxides, malondialdehyde and diene conjugates” value was “all reduced”.

Turning to `NC(=O)c1cccnc1` [nicotinamide, Nicotinamide], the “concentration of maximum recovery of glucose-induced insulin secretion” value in the series with pancreatic islets is recorded as 25 mmol/L.

Regarding `O=S(=O)([O-])[O-].[O]=[V+2]` [vanadyl sulfate], the “time effects are sustained after discontinuation” value in [6] (100 mg/day for 3 weeks) is “up to 2 weeks”. Moreover, the “hepatic and peripheral insulin sensitivity” value in series [6] (100 mg/day, after 3 weeks) is “appear to improve”.

As to vitamin E, the “insulin efficiency and fibrinolysis” value in [7] is “may further worsen insulin efficiency and increase fibrinolysis”.
